Like-named read-outs stand apart in the source and are kept apart here. Each block holds one molecule with its values, some of them ahead of it.
How the values were obtained:
[1] = tested on: skin and the mucous membranes, particularly of the mouth, of the nasal fossa and of the throat; assay: Organoleptic and physiological qualities of the compounds, noted by the inventors and flavor experts; type: in vivo; settings: for Organoleptic qualities: Tables I-V
Source text: The invention is based on the following observation, made by the inventors and backed up by flavor experts, that the physiological effects of N-ethyl-2-(2-isopropyl-5-methylcyclohexyl)acetamide: As mentioned above, the compounds of general formula (I) according to the invention have particular physiological effects. They cause a cool and/or warm sensation on the skin and the mucous membranes, particularly of the mouth, of the nasal fossa and of the throat. Some of these amides cause a more or less intense refreshing physiological effect giving the foods to which they are added a sensation of freshness, whereas others cause a warming physiological effect. Some of them can also cause other physiological effects, such as tingling or a piquant-burning physiological effect characteristic of substances that activate the trigeminal nerve, therefore giving the foods to which they are added a spicy sensation.

[2] = tested on: panelists / flavor experts; assay: Evaluation in mineral water; type: in vivo
Method: The molecule was evaluated in mineral water at a dosage of 30 ppm. […] The evaluation of the organoleptic properties of compound 10 was carried out in mineral water at a concentration of 1 ppm.

panelists [3] = assay: Curry/capsicum flavoring evaluated in crackers; type: in vivo; settings: flavoring in crackers at 5% (final dosage 500 ppm)
Source text: Compound 10 was subsequently tested in a curry/capsicum flavoring and evaluated in crackers at 5% (final dosage: 500 ppm). [table]

panel of tasters = assay: Flavorings for oro-dental hygiene (mouthwashes, toothpaste); type: in vivo; settings: alcoholic mouthwash, nonalcoholic mouthwash and toothpaste
Method: Compound 10 was tested in various applications: in an alcoholic mouthwash and a nonalcoholic mouthwash and in toothpaste. […] This molecule is very advantageous since it provides a tingling sensation on the edge of the tongue, which is piquant like a capsicum, and salivating. [table] Dosage of flavoring 0.2% Dosage of flavoring 0.2% Dosage of flavoring 1%

panel of flavor experts = assay: Comparative evaluation of enantiomers 1′ and 1″ and the racemic mixture by a panel of flavor experts; type: in vivo; settings: enantiomers taken separately versus each other and versus the racemic mixture
Source text: The enantiopure compounds 1′ and 1″ obtained in examples 21 and 22 and also the racemic mixture of compound 1 obtained in example 2 were subjected to a panel of flavor experts for a comparative evaluation of the organoleptic and physiological qualities.

[4] = tested on: skin and the mucous membranes, particularly of the mouth, of the nasal fossa and of the throat; settings: known from WO 2007/089252; cited from earlier work
panelists [5] = assay: Mint flavoring evaluated in fondant; type: in vivo; settings: in a mint flavoring, dosage of 50 ppm
Method: The molecule was tested in a mint flavoring and evaluated in fondant at a dosage of 50 ppm.

panelists [6] = assay: Citrus fruit flavoring in fatty filling; type: in vivo; settings: 10% in a citrus fruit flavoring, flavoring at 0.3% in fatty filling
Method: The molecule was tested at 10% in a citrus fruit flavoring, the flavoring obtained was at a dose of 0.3% in fatty filling.

Structure (SMILES): CNC(=O)C=C1CC(C)CCC1C(C)C (stereo not shown) [Compound 18, 2-(2-isopropyl-5-methylcyclohexylidene)-N-methylacetamide]
Organoleptic qualities [1]: Refreshing

Structure (SMILES): COc1cc(CNC(=O)CC2CC(C)CCC2C(C)C)ccc1O (stereo not shown) [Compound 10, N-(4-hydroxy-3-methoxybenzyl)-2-(2-isopropyl-5-methylcyclohexyl)acetamide]
physiological effect [1]: strong piquant-burning physiological effect
Organoleptic qualities [1]: Warm and piquant like pepper, with a salivating effect
sensation felt ([2]; concentration of 1 ppm): burning and salivation sensation which comes immediately after depositing on the tongue
duration of sensation (panelists [3]): more longlasting sensation
sensation felt (panel of tasters): piquant and warming sensation

Structure (SMILES): CNC(=O)CC1C=C(C)CCC1C(C)C (stereo not shown) [Compound 19, 2-(6-isopropyl-3-methylcyclohex-2-enyl)-N-methylacetamide]
Organoleptic qualities [1]: Refreshing with a delayed

Structure (SMILES): C=C(C)[C@@H]1CC[C@@H](C)C[C@@H]1CC(=O)NC [Compound 1″, N-methylamide of (1′R,2′R,5′R)-2-[(2′-isopropenyl-5′-methyl)cyclohex-1-yl]acetic acid]
difference in perception threshold and intensity of the refreshing effect felt (panel of flavor experts): did not make it possible to demonstrate any notable difference

Structure (SMILES): CC(C)CNC(=O)CC1CC(C)CCC1C(C)C (stereo not shown) [Compound 2, N-isobutyl-2-(2-isopropyl-5-methylcyclohexyl)acetamide]
Organoleptic qualities [1]: Refreshing and tingling

Structure (SMILES): CC1CCC(C(C)C)C(CC(=O)Nc2ccc(CC#N)cc2)C1 (stereo not shown) [Compound 13, N-(4-cyanomethylphenyl)-2-(2-isopropyl-5-methylcyclohexyl)acetamide]
Organoleptic qualities [1]: Warm

Structure (SMILES): CCNC(=O)CC1CC(C)CCC1C(C)C (stereo not shown) [N-ethyl-2-(2-isopropyl-5-methylcyclohexyl)acetamide]
physiological effect [4]: refreshing agent

Structure (SMILES): CC(=O)OCCNC(=O)CC1CC(C)CCC1C(C)C (stereo not shown) [Compound 5, [2-(2-isopropyl-5-methylcyclohexyl)acetylamino]ethyl acetate]
Organoleptic qualities [1]: Persistent mentholated

Structure (SMILES): CNC(=O)CC1CC(C)CCC1C(C)C (racemic) [Compound 1, N-methyl-2-(2-isopropyl-5-methylcyclohexyl)acetamide]
effectiveness as refreshing agent, in terms of intensity and of perception threshold ([1]; comparative study among the refreshing agents 1, 19, 15, 17, 18, 8, 9): the most effective
aromatic note of the drink ([2]; dosage of 30 ppm): minty, pine, liquoricy, warming, piquant, salivating
sensation felt ([2]; dosage of 30 ppm): freshness which came very rapidly after swallowing
sensation perceived (panelists [5]): intense freshness which lasts for a few minutes
sensation perceived (panelists [6]): persistent freshness, and a change in the lemon profile

Structure (SMILES): CC1CCC(C(C)C)C(CC(=O)NCc2ccc3c(c2)OCO3)C1 (stereo not shown) [Compound 14, N-benzo[1,3]dioxol-5-ylmethyl-2-(2-isopropyl-5-methylcyclohexyl)acetamide]
Organoleptic qualities [1]: Warm and cold at the back of the throat, with a vanilla note

Structure (SMILES): CC1CCC(C(C)C)C(CC(=O)NCC(=O)O)C1 (stereo not shown) [Compound 3, [2-(2-isopropyl-5-methylcyclohexyl)acetylamino]acetatic acid]
Organoleptic qualities [1]: Warm

Structure (SMILES): CC1CCC(C(C)C)C(CC(=O)Nc2ccc(C#N)cc2)C1 (stereo not shown) [Compound 12, N-(4-cyanophenyl)-2-(2-isopropyl-5-methylcyclohexyl)acetamide]
Organoleptic qualities [1]: Warm

Structure (SMILES): CC1CCC(C(C)C)C(CC(=O)NCC(C)(C)O)C1 (stereo not shown) [Compound 7, N-(2-hydroxy-2-methylpropyl)-2-(2-isopropyl-5-methylcyclohexyl)acetamide]
Organoleptic qualities [1]: Woody, piquant, and cold,

Structure (SMILES): C=C(C)[C@H]1CC[C@H](C)C[C@H]1CC(=O)NC [Compound 1′, N-methylamide of (1′S,2′S,5′S)-2-[(2′-isopropenyl-5′-methyl)cyclohex-1-yl]acetic acid]
difference in perception threshold and intensity of the refreshing effect felt (panel of flavor experts): did not make it possible to demonstrate any notable difference

melting point: 82 °C
Structure (SMILES): CNC(=O)CC1=C(C(C)C)CCC(C)C1 (stereo not shown) [Compound 17, 2-(2-isopropyl-5-methylcyclohex-1-enyl)-N-methylacetamide]
Organoleptic qualities [1]: Refreshing

Structure (SMILES): CNC(=O)C(C)C1CC(C)CCC1C(C)C (stereo not shown) [Compound 8, 2-(2-isopropyl-5-methylcyclohexyl)-N-methylpropionamide]
Organoleptic qualities [1]: Piquant, slight

Structure (SMILES): CC1CCC(C(C)C)C(CC(=O)NCCO)C1 (stereo not shown) [Compound 6, N-(2-hydroxyethyl)-2-(2-isopropyl-5-methylcyclohexyl)acetamide]
Organoleptic qualities [1]: Refreshing and tingling,

Structure (SMILES): C=C(C)C1CCC(C)CC1CC(=O)NCc1ccc(O)c(OC)c1 (stereo not shown) [Compound 16, N-(4-hydroxy-3-methoxybenzyl)-2-(2-isopropenyl-5-methylcyclohexyl)acetamide]
Organoleptic qualities [1]: Powerful piquant with delayed effect, salivating, slightly woody

Structure (SMILES): COC(=O)c1ccccc1NC(=O)CC1CC(C)CCC1C(C)C (stereo not shown) [Compound 11, N-(2-methyloxycarbonylphenyl)-2-(2-isopropyl-5-methylcyclohexyl)acetamide]
physiological effect [1]: notable warming physiological effect, devoid of the piquant-burning aspect
Organoleptic qualities [1]: Warm

Structure (SMILES): C=C(C)C1CCC(C)CC1CC(=O)NC (stereo not shown) [Compound 15, 2-(2-isopropenyl-5-methylcyclohexyl)-N-methylacetamide]
Organoleptic qualities [1]: Refreshing

Structure (SMILES): CNC(=O)CC(C)C1CC(C)CCC1C(C)C (stereo not shown) [Compound 9, 3-(2-isopropyl-5-methylcyclohexyl)-N-methylbutyramide]
Organoleptic qualities [1]: Cool
